The record followed here is US11472798B2 (Mission Therapeutics Limited, priority 2014, dated 2022).

The target in the experiment is T1, UCHL1 (Homo sapiens, UniProt P09936).
T1 construct: made in house; host or cells: HEK293T
T1 sequence (P09936 1-223): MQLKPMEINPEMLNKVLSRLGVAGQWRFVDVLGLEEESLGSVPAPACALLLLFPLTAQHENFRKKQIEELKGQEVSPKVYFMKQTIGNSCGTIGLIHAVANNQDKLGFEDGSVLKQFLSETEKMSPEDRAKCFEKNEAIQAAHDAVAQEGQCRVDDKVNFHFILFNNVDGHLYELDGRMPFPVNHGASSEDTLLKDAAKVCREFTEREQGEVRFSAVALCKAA
The experiment is described as follows: UCHL1 biochemical IC50 assay (fluorescence polarisation). Particulars: 30 min enzyme/compound pre-incubation at room temp, read after 2 hr incubation, read-out: Activity range (UCHL1 biochemical IC50 assay). The method in brief:
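FLAG-UCHL1 purified from transfected HEK293T cells was preincubated 30 min at room temperature with compound (8 points, 100–0.03 μM final) in Tris pH 7.5 buffer with Tween 20, BSA and beta-mercaptoethanol. Reaction started with 50 nM TAMRA-peptide–ubiquitin isopeptide substrate; fluorescence polarisation (ex 540/em 590 nm) read at once and after 2 h.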

Consider `N#CN1CC[C@H](C(=O)Nc2ncc(-c3cccc4[nH]ncc34)s2)C1` [Example 230, (S)—N-(5-(1H-indazol-4-yl)thiazol-2-yl)-1-cyanopyrrolidine-3-carboxamide], for which the IC50 was < 1000 nM.
On to `Cc1noc(C)c1CCn1cnc(NC(=O)[C@H]2CCN(C#N)C2)c1` [Example 179, (S)-1-cyano-N-(1-(2-(3,5-dimethylisoxazol-4-yl)ethyl)-1H-imidazol-4-yl)pyrrolidine-3-carboxamide], for which the concentration for half-maximal inhibition (IC50) is < 1000 nM.
Turning to `C[C@H]1[C@@H](C(=O)Nc2cc3cc(-c4cn[nH]c4)ccc3cn2)CCN1C#N` [Example 266, (2S,3S)—N-(6-(1H-pyrazol-4-yl)isoquinolin-3-yl)-1-cyano-2-methylpyrrolidine-3-carboxamide], the IC50 is < 1000 nM.
For `N#CN1CC[C@H](C(=O)Nc2cc(-c3cccc(Cl)c3)ncn2)C1` [Example 257, (S)-N-(6-(3-chlorophenyl)pyrimidin-4-yl)-1-cyanopyrrolidine-3-carboxamide] the value was 1000 to 10000 nM; for `N#Cc1ccc(-n2cnc(NC(=O)[C@H]3CCN(C#N)C3)c2)cc1OCCCN1CCOCC1` [Example 245, (S)-1-cyano-N-(1-(4-cyano-3-(3-morpholinopropoxy)phenyl)-1H-imidazol-4-yl)pyrrolidine-3-carboxamide], < 1000 nM; for `N#CN1CC[C@H](C(=O)Nc2ccc3cccnc3n2)C1` [Example 56, (S)-1-cyano-N-(1,8-naphthyridin-2-yl)pyrrolidine-3-carboxamide], 10000 to 30000 nM.
For `N#CN1CC[C@H](C(=O)Nc2cn(C3CCc4ccccc43)cn2)C1` (stereo partly drawn) [Example 163] the value was < 1000 nM; for `COCCOc1ccc(C#N)c(-n2cnc(NC(=O)[C@H]3CCN(C#N)C3)c2)c1` [Example 244, (S)-1-cyano-N-(1-(2-cyano-5-(2-methoxyethoxy)phenyl)-1H-imidazol-4-yl)pyrrolidine-3-carboxamide], < 1000 nM; for `CC(=O)N1CCc2nc(NC(=O)[C@H]3CCN(C#N)C3)sc2C1` [Example 189, (S)—N-(5-acetyl-4,5,6,7-tetrahydrothiazolo[5,4-c]pyridin-2-yl)-1-cyanopyrrolidine-3-carboxamide], < 1000 nM.
On to `Cc1noc(C)c1-c1ccc2nc(NC(=O)[C@H]3CCN(C#N)C3)sc2c1C` [Example 138, (S)-1-cyano-N-(6-(3,5-dimethylisoxazol-4-yl)-7-methylbenzo[d]thiazol-2-yl)pyrrolidine-3-carboxamide], for which the 50% inhibitory concentration (IC50) is < 1000 nM.
For `N#CN1CC[C@H](C(=O)Nc2cn(-c3ccccc3)nn2)C1` [Example 44, (S)-1-cyano-N-(1-phenyl-1H-1,2,3-triazol-4-yl)pyrrolidine-3-carboxamide] the value was 1000 to 10000 nM; for `Cc1c(-c2cnn(C)c2)ccc2nc(NC(=O)[C@H]3CCN(C#N)C3)sc12` [Example 139, (S)-1-cyano-N-(7-methyl-6-(1-methyl-1H-pyrazol-4-yl)benzo[d]thiazol-2-yl)pyrrolidine-3-carboxamide], < 1000 nM; for `N#CN1CC[C@H](C(=O)Nc2nc3ccc(-c4cn[nH]c4)cc3s2)C1` [Example 292, (S)-N-(6-(1H-pyrazol-4-yl)benzo[d]thiazol-2-yl)-1-cyanopyrrolidine-3-carboxamide], 1000 to 10000 nM.
Under `COC[C@@H]1CCCN1c1cnc(NC(=O)[C@H]2CCN(C#N)C2)s1` [Example 100, (S)-1-cyano-N-(5-((S)-2-(methoxymethyl)pyrrolidin-1-yl)thiazol-2-yl)pyrrolidine-3-carboxamide] stands < 1000 nM; under `N#CN1CCC(C(=O)Nc2ccc(-c3ccncc3)cn2)C1` (stereo not drawn) [Example 34, N-([3,4′-bipyridin]-6-yl)-1-cyano-pyrrolidine-3-carboxamide], 1000 to 10000 nM; under `CC1(C(=O)Nc2ncc(-c3ccccc3)s2)CCN(C#N)C1` (stereo not drawn) [Example 78, 1-cyano-3-methyl-N-(5-phenylthiazol-2-yl)pyrrolidine-3-carboxamide], 1000 to 10000 nM.
`CNc1cc(-c2ccnc(NC(=O)[C@H]3CCN(C#N)C3)c2)ccn1` [Example 259, (S)-1-cyano-N-(2′-(methylamino)-[4,4′-bipyridin]-2-yl)pyrrolidine-3-carboxamide]: the 50% inhibitory concentration (IC50) lay in the range of 1000 to 10000 nM.
Turning to `N#CN1CCC(C(=O)Nc2ncc(-c3ccccc3N)s2)C1` (stereo not drawn) [Example 109, N-(5-(2-aminophenyl)thiazol-2-yl)-1-cyanopyrrolidine-3-carboxamide], the IC50 was in the range of 1000 to 10000 nM.
With `N#CN1CCC(C(=O)Nc2cc(-c3ccccc3)on2)C1` (stereo not drawn) [Example 15, 1-cyano-N-(5-phenylisoxazol-3-yl)pyrrolidine carboxamide], the IC50 is 1000 to 10000 nM.
For the compound `N#CN1CCC(C(=O)Nc2nc3ccc(C4CC4)cc3s2)C1` (stereo not drawn) [Example 130, 1-cyan-N-(6-cyclopropylbenzo[d]thiazol-2-yl)pyrrolidine-3-carboxamide], the IC50 is < 1000 nM.
Under `Cc1nn(C)c2ccc(-n3cnc(NC(=O)[C@H]4CCN(C#N)C4)c3)cc12` [Example 298, (S)-1-cyano-N-(1-(1,3-dimethyl-1H-indazol-5-yl)-1H-imidazol-4-yl)pyrrolidine-3-carboxamide] stands < 1000 nM; under `N#Cc1ccc(-n2cnc(NC(=O)[C@H]3CCN(C#N)C3)c2)cc1C1CC1` [Example 304, (S)-1-cyano-N-(1-(4-cyano-3-cyclopropylphenyl)-1H-imidazol-4-yl)pyrrolidine-3-carboxamide], < 1000 nM; under `Cc1noc(C)c1-c1cc2sc(NC(=O)[C@H]3CCN(C#N)C3)nc2cn1` [Example 296, (S)-1-cyano-N-(6-(3,5-dimethylisoxazol-4-yl)thiazolo[4,5-c]pyridin-2-yl)pyrrolidine-3-carboxamide], 10000 to 30000 nM.
Consider `N#CN1CC[C@H](C(=O)Nc2ncc(-c3ccccc3)s2)C1` [Example 1, (S)-1-cyano-N-(5-phenylthiazol-2-yl)pyrrolidine-3-carboxamide], for which the 50% inhibitory concentration (IC50) was < 1000 nM.
Under `CC[C@@H]1CN(C#N)C[C@H]1C(=O)Nc1cn(-c2ccccc2)cn1` [Example 87, (6)-1-cyano-4-ethyl-N-(1-phenyl-1H-imidazol-4-yl)pyrrolidine-3-carboxamide] stands 1000 to 10000 nM.
Under `N#CN1CC[C@H](C(=O)Nc2cn(-c3ccc4cn[nH]c4c3)cn2)C1` [Example 301, (S)-N-(1-(1H-indazol-6-yl)-1H-imidazol-4-yl)-1-cyanopyrrolidine-3-carboxamide] stands < 1000 nM; under `CNC(=O)c1cc(-c2cnc(NC(=O)[C@H]3CCN(C#N)C3)s2)ccc1F` [Example 231, (S)-1-cyano-N-(5-(4-fluoro-3-(methylcarbamoyl)phenyl)thiazol-2-yl) pyrrolidine-3-carboxamide], < 1000 nM.
For `N#CN1CC[C@H](C(=O)Nc2cc(-c3cccc4nccn34)ccn2)C1` [Example 253, (S)-1-cyano-N-(4-(imidazo[1,2-a]pyridin-5-yl)pyridin-2-yl)pyrrolidine-3-carboxamide] the value was < 1000 nM; for `Cc1cccc(C)c1-c1ccc2nc(NC(=O)[C@H]3CCN(C#N)C3)sc2c1` [Example 287, (S)-1-cyano-N-(6-(2,6-dimethylphenyl)benzo[d]thiazol-2-yl)pyrrolidine-3-carboxamide], < 1000 nM.
With `CC(C)C(=O)N1CCc2nc(NC(=O)[C@H]3CCN(C#N)C3)sc2C1` [Example 190, (S)-1-cyano-N-(5-isobutyryl-4,5,6,7-tetrahydrothiazolo[5,4-c]pyridin-2-yl)pyrrolidine-3-carboxamide], the IC50 is < 1000 nM.
For `N#CN1CC[C@H](C(=O)Nc2cn(-c3ccncc3)cn2)C1` [Example 182, (S)-1-cyano-N-(1-(pyridin-4-yl)-1H-imidazol-4-yl)pyrrolidine-3-carboxamide] the value was < 1000 nM; for `N#CN1CCC(C(=O)Nc2ncc(-c3cccc(N)c3)s2)C1` (stereo not drawn) [Example 110, N-(5-(3-aminophenyl)thiazol-2-yl)-1-cyanopyrrolidine-3-carboxamide], 1000 to 10000 nM; for `Cc1noc(C)c1-c1ccc2sc(NC(=O)C3CCN(C#N)C3)nc2c1` (stereo not drawn) [Example 119, 1-cyano-N-(5-(3,5-dimethylisoxazol-4-yl)benzo[d]thiazol-2-yl)pyrrolidine-3-carboxamide], 1000 to 10000 nM.
For the compound `N#CN1CC[C@@H](C(=O)Nc2ccc(-c3ccccc3)cn2)C1` [Example 71, (R)-1-cyano-N-(5-phenylpyridin-2-yl)pyrrolidine-3-carboxamide], the 50% inhibitory concentration (IC50) was 10000 to 30000 nM.
For `N#CN1CC[C@H](C(=O)Nc2cn(-c3ccccc3F)cn2)C1` [Example 152, (S)-1-cyano-N-(1-(2-fluorophenyl)-1H-imidazol-4-yl)pyrrolidine-3-carboxamide] the value was < 1000 nM; for `Cc1oncc1-c1cccc(-c2ccnc(NC(=O)[C@H]3CCN(C#N)C3)c2)c1` [Example 290, (S)-1-cyano-N-(4-(3-(5-methylisoxazol-4-yl)phenyl)pyridin-2-yl)pyrrolidine-3-carboxamide], < 1000 nM; for `CCc1nnc(NC(=O)C2CCN(C#N)C2)s1` (stereo not drawn) [Example 12, 1-cyano-N-(5-ethyl-1,3,4-thiadiazol-2-yl)pyrrolidine-3-carboxamide], 1000 to 10000 nM.
Under `C[C@H]1[C@@H](C(=O)Nc2cn(Cc3ccccc3)cn2)CCN1C#N` [Example 149, (2S,3S)—N-(1-benzyl-1H-imidazol-4-yl)-1-cyano-2-methylpyrrolidine-3-carboxamide] stands < 1000 nM; under `COC1(C(=O)Nc2ncc(-c3ccccc3)s2)CCN(C#N)C1` (stereo not drawn) [Example 284, 1-cyano-3-methoxy-N-(5-phenylthiazol-2-yl)pyrrolidine-3-carboxamide], < 1000 nM.
